In patent US12383579B2, “Materials and methods of using an inhibitor of plasminogen activation to treat anastomotic leak” (THE UNIVERSITY OF CHICAGO, priority 2018, dated 2025):
Entries after “also recorded” stand apart in the source; their conditions may differ.

Experiments:
[1] = test system: type IV collagen degradation by V583; assay: Type IV collagen degradation by E. faecalis V583 with PLG and uPA; assay type: biochemical, Enterococcus faecalis
Experimental: Collagen degradation. Assays were performed per the manufacturer's instructions as previously described with slight modifications (51′). Bacteria were grown overnight in TY. Optical density was normalized to 0.1 through dilution. […] Total reaction volume was 200 L. The incubation proceeded at 37° C. for 5 hours to allow for bacterial attachment to collagen and PLG binding. uPA was added and the incubation proceeded for an additional hour. Change in fluorescence over time at 480/520 nm was determined kinetically over the initial 30 minutes of the reaction.

E. faecalis = assay: Intrinsic bacterial type IV collagen degradation in the absence of PLG; assay type: biochemical, Enterococcus faecalis
Experimental: Collagen degradation. Assays were performed per the manufacturer's instructions as previously described with slight modifications (51′). Bacteria were grown overnight in TY. Optical density was normalized to 0.1 through dilution. Bacteria were then incubated with fluorescein-labeled type I collagen, type IV collagen, or gelatin according to the manufacturer's instructions (ThermoFisher), human PLG at 250 nM and TXA. Total reaction volume was 200 L. The incubation proceeded at 37° C. for 5 hours to allow for bacterial attachment to collagen and PLG binding. uPA was added and the incubation proceeded for an additional hour. Change in fluorescence over time at 480/520 nm was determined kinetically over the initial 30 minutes of the reaction.

[2] = test system: FITC-labeled PLG binding to E. faecalis V583 cell surface; assay: Flow cytometric evaluation of FITC-PLG binding to E. faecalis; parameters: species or system Enterococcus faecalis; conditions: for geometric mean fluorescence intensity of cells (surface-bound FITC-PLG): 1768 in the absence of TXA
Experimental: Flow cytometric evaluation of PLG binding. PLG binding to the bacterial surface was measured as previously described, with minor modifications (52′). Bacteria were grown overnight in TY. Cultures were diluted to a final density of roughly 8×10^6 CFU/mL. […] Cells were pelleted, washed three times with PBS, and resuspended. Fluorescence was analyzed using an Imagestream ISX flow cytometer. Enterococci were detected using log-forward and log-side scatter dot plots, and a gating region was set to exclude debris and aggregates of bacteria. Bacteria were analyzed for FITC-range fluorescence using log-scale amplification, of which the geometric mean fluorescence intensity was recorded as a measure for PLG binding. FITC-range fluorescent signal was confirmed by light and fluorescent microscopy of each event.
Flow cytometry was performed after incubation of V583 with FITC-labeled PLG as before. 80.9% of cells reached a subjectively determined threshold for surface-bound FITC-PLG. […] The effect was concentration-dependent and statistically significant (FIG. 37D).

[3] = test system: E. faecalis E44-induced AL; assay: Mouse model of E44-induced anastomotic leak; assay type: in vivo, C57BL/6 mice
Experimental: The role of activated plasminogen (PLG) in anastomotic leak. […] Co-incubation of E44 with murine macrophages ([…]) was performed for studies involving conditioned media. Twenty-week-old male C57BL/6 mice underwent the validated model of E44-induced AL that includes preoperative antibiotics to defaunate the colon, surgical transection and anastomosis of the colon and introduction of E44 in 10% glycerol to the surgical site via rectal enema on postoperative day 1. […] Anastomotic healing was assessed blindly using a validated anastomotic healing score (AHS): 0=uncomplicated healing, 1=flimsy adhesions, 2=dense adhesions, 3=abscess, and 4=gross anastomotic disruption. AL was defined as AHS 3 or above.

[4] = test system: E. faecalis V583-induced AL
Experimental: Mouse model of AL. The experiments disclosed herein used the validated model of pathogen-mediated AL in mice (8′). Ten- to 12-week-old C57BL/6 mice (Charles River) were provided standard chow and tap water ad libidum at all times. When indicated, mice received oral clindamycin (100 mg/kg gavage) and subcutaneous cefoxitin (40 mg/kg) the day prior to, and the day of, surgery. Mice underwent general anesthesia with intraperitoneal ketamine and xylocaine and laparotomy followed by transection of the colon at the colo-rectal junction followed by a primary anastomosis created with interrupted 8-0 prolene suture prior to abdominal closure with 4-0 vicryl suture in two layers. Rectal enemas containing pathogen, either E. faecalis or P. aeruginosa at an OD600 of 0.1 in 10% glycerol, were administered in 100 L enemas. E. faecalis was introduced on POD 1, 2, and 3, while P. aeruginosa was introduced only on POD 1. Mice received 100 L rectal enemas containing 50 mM TXA or vehicle control on postoperative days 1, 2, and 3. Rectal delivery with a gavage needle ensured local administration of pathogen and study drugs to the surgical site. […] Both the surgeon and the investigator performing analysis of healing were blind to the treatment group. […]

[5] = test system: RAW macrophages stimulated by V583; assay: Gelatin degradation by V583-stimulated RAW macrophages; assay type: cell-based, murine; conditions: 10 mM TXA
[6] = molecular target: PLG activation by E. faecalis V583 (Homo sapiens, UniProt P00747); assay type: biochemical
Experimental: Plasminogen/uPA activity. Plasmin activity assays were performed as previously described with minor modifications, and fluorescence data was analyzed per the manufacturer's instructions (50′). Incubation times were optimized for bacteria at low optical density to limit internal filter effects in fluorescence-based assays. Bacteria (when included) were grown overnight in TY media. OD600 was normalized by dilution to 0.1, equivalent to 8×10^7 CFU/mL. Samples at OD 0.1 were diluted 1:10 in the final reaction through the addition of media and dissolved substrates. Bacteria were incubated with 250 nM human glu-plasminogen (Haematologic technologies) for two hours at 37° C. TXA (Fisher) was added concomitantly with PLG. […] A final concentration of 6 M fluorogenic substrate specific for plasmin (H-D-Val-Leu-Lys-AFC, AnaSpec) was added immediately prior to a kinetic fluorescent read with excitation wavelength 380 nm and emission wavelength 500 nm. Reads were conducted every 15 to 30 seconds over the course of 30 minutes. […] When assays were performed in human plasma, fluorescence was read for 120 minutes total.
Plasmin or uPA activity is expressed as initial reaction velocity calculated from change in fluorescence over time during the initial phase of the reaction, when pseudo-first order kinetics determine the rate due to high substrate concentrations where a linear rise in fluorescence is observed. […]

[7] = molecular target: T1, P. aeruginosa MPAO1-P2 plasminogen activation (Homo sapiens, UniProt P00747); assay: PLG activation by P. aeruginosa; assay type: biochemical; conditions: TY 1:1 with PBS (10 mM phosphate), or water plus 10 mM TXA, versus water alone
T1 construct: 250 nM human glu-plasminogen (Haematologic technologies); purchased Haematologic technologies
Experimental: Plasminogen/uPA activity. Plasmin activity assays were performed as previously described with minor modifications, and fluorescence data was analyzed per the manufacturer's instructions (50′). Incubation times were optimized for bacteria at low optical density to limit internal filter effects in fluorescence-based assays. Bacteria (when included) were grown overnight in TY media. OD600 was normalized by dilution to 0.1, equivalent to 8×10^7 CFU/mL. Samples at OD 0.1 were diluted 1:10 in the final reaction through the addition of media and dissolved substrates. Bacteria were incubated with 250 nM human glu-plasminogen (Haematologic technologies) for two hours at 37° C. TXA (Fisher) was added concomitantly with PLG. A final concentration of 4 nM uPA (Biovision) or pro-uPA (Biovision) was added and incubation proceeded for 20 minutes. A final concentration of 6 M fluorogenic substrate specific for plasmin (H-D-Val-Leu-Lys-AFC, AnaSpec) was added immediately prior to a kinetic fluorescent read with excitation wavelength 380 nm and emission wavelength 500 nm. Reads were conducted every 15 to 30 seconds over the course of 30 minutes. For assays of uPA activity, PLG was omitted from the incubation and a substrate specific to uPA (Z-Gly-Gly-Arg-AMC, Bachem) was used. When assays were performed in human plasma, fluorescence was read for 120 minutes total. […]

RAW macrophages = assay: PLG activation by RAW macrophages stimulated with E44 conditioned media; assay type: cell-based, murine; conditions: TXA 10 mM, PLG 250 nm, 4 hours
Experimental: (A), E. faecalis E44 was grown in TY media overnight, and cell-free conditioned media (E44s) was applied to RAW macrophages for 4 hours. PLG, 250 nm, was included in the reaction. TXA, 10 mM, was added when needed. PLG activation was measured by fluorogenic substrate cleavage. “RAW” column is naïve RAW. *p<0.05, n=6/group. (B), Conditioned media after co-interaction of macrophages with E. faecalis E44 (named RAW/E44s) was applied to naïve RAW macrophages for 4 hours. PLG, 250 nm, and MMP9, 1 nM, were in all reactions. TXA, 10 mM, was added when needed. “RAW+RAWs” column is naïve macrophages incubated with conditioned media of RAW macrophages (no E. faecalis E44). *p<0.05, n=6/group.
RAW 264.7 or J774 murine macrophages were incubated at 37° C. and 5% CO2 in Dulbecco's modified eagle media (DMEM) with 10% fetal bovine serum, penicillin/streptomycin and antifungals during growth. For plasmin activity assays, cells were plated at 10^4 cells/well on a 96-well plate in phenol-free DMEM with 1% FBS. Added bacteria were in low volumes of TY.
RAW 267.4 murine macrophages are co-incubated with E44, reasoning that bacteria and macrophages regularly co-interact in healing gut tissue. […] To confirm the expectation, naïve macrophages were stimulated with conditioned media from E44 overnight culture.

Sequence of PLG activation by E. faecalis V583 (P00747 20-810): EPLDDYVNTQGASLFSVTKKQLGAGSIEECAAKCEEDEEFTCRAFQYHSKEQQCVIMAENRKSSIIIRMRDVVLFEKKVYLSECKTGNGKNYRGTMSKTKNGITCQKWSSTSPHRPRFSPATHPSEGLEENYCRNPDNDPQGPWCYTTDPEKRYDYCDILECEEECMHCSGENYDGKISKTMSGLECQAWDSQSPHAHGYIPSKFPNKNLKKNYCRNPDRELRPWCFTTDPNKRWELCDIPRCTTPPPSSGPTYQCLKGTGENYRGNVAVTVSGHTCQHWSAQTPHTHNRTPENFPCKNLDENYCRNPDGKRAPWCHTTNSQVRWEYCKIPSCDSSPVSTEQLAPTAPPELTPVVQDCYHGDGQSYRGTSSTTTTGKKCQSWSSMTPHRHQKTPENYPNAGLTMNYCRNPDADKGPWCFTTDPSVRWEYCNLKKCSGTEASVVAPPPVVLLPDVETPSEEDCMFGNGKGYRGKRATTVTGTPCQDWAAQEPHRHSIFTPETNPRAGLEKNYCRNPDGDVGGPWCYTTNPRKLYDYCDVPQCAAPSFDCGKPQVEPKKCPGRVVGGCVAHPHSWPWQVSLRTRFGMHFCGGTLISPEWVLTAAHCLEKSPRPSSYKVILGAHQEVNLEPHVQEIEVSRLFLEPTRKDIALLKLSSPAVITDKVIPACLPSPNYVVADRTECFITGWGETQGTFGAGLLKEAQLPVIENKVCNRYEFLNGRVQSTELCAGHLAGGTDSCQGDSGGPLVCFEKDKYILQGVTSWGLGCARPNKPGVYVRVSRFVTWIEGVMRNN
T1 sequence (P00747 20-810): as above

**Q.** How did the “type IV collagen degradation by V583 with PLG and uPA” value ([1]; V583, PLG, uPA and TXA) turn out when `NC[C@H]1CC[C@H](C(=O)O)CC1` [TXA, tranexamic acid] was run?
**A.** concentration-dependent inhibition

**Q.** What about the “reduction of bacterial collagen degradation” value ([1]; same concentration levels as for PLG activation (FIG. 23)) of the same compound?
**A.** over 80%

**Q.** And the “intrinsic bacterial type IV collagen degradation activity” value (E. faecalis)?
**A.** no effect

**Q.** And the “geometric mean fluorescence intensity of cells (surface-bound FITC-PLG)” value ([2]; 2 mM TXA)?
**A.** 936

**Q.** And the “geometric mean fluorescence intensity of cells (surface-bound FITC-PLG)” value ([2]; 10 mM TXA)?
**A.** 77

**Q.** What about the “surface binding of FITC-PLG by E. faecalis” value ([2]; flow cytometry and single-cell microscopy) of the same compound?
**A.** decrease in surface binding of FITC-PLG; also recorded: Fluorescent signal was not present

**Q.** What about the “overall healing (AHS) compared to vehicle control” value ([3]; TXA 0.75 mg/kg rectal enema POD 1, 2 and 3, POD 8) of the same compound?
**A.** significantly superior

**Q.** And the “mean anastomotic healing score (AHS)” value ([3]; TXA 0.75 mg/kg rectal enema, scored postoperative day 8, vehicle 2.8)?
**A.** 1.4

**Q.** And the “mean anastomotic healing score (AHS)” value ([4]; 100 μL enema of 50 mM TXA POD 1, 2, 3, POD 8, vehicle 2.7±0.2)?
**A.** 1.5±0.2

**Q.** And the “trichrome staining of POD8 anastomotic tissue” value ([4]; TXA enema versus vehicle with AL)?
**A.** increased quantity and organization of fibroblastic products in the submucosa

**Q.** What about the “gelatin degradation in V583-stimulated macrophages” value ([5]; PLG, uPA, 6 hours, no added pro-MMP9) of the same compound?
**A.** significantly inhibited gelatin degradation

**Q.** And the “gelatin degradation in V583-stimulated macrophages” value ([5]; with added pro-MMP9)?
**A.** significantly diminished

**Q.** And the “reduction in PLG activation by E. faecalis” value ([6]; in vitro, concentrations lower than circulating concentration after PO dosing (FIG. 23))?
**A.** 20%

**Q.** What about the “PLG activation by V583 in the presence of uPA” value ([6]; plasmin activity assay, PLG 250 nM, uPA) of the same compound?
**A.** inhibited PLG activation by V583 in a concentration-dependent manner

**Q.** And the “PLG activation by P. aeruginosa” value [7]?
**A.** significantly attenuated

**Q.** What about the “PLG activation by P. aeruginosa” value ([7]; listed as Tranexamic acid) of the same compound?
**A.** inhibits

**Q.** And the “PLG activation by macrophages stimulated with E44 conditioned media” value (RAW macrophages)?
**A.** This effect was inhibited
